Measured values as given in patent publication US7030087B2, “Synthetic approach to designed chemical structures” (priority 1996, dated 2006).

B1: bactericidal/permeability increasing polypeptide (protein, UniProt P17213 32-487, looked up)
Bactericidal …: VNPGVVVRISQKGLDYASQQGTAALQKELKRIKIPDYSDSFKIKHLGKGHYSFYSMDIREFQLPSSQISMVPNVGLKFSISNANIKISGKWKAQKRFLKMSGNFDLSIEGMSISADLKLGSNPTSGKPTITCSSCSSHINSVHVHISKSKVGWLIQLFHKKIESALRNKMNSQVCEKVTNSVSSELQPYFQTLPVMTKIDSVAGINYGLVAPPATTAETLDVQMKGEFYSENHHNPPPFAPPVMEFPAAHDRMVYLGLSDYFFNTAGLVYQEAGVLKMTLRDDMIPKESKFRLTTKFFGTFLPEVAKKFPNMKIQIHVSASTPPHLSVQPTGLTFYPAVDVQAFAVLPNSSLASLFLIGMHTTGSMEVSAESNRLVGELKLDRLLLELKHSNIGPFPVELLQDIMNYIVPILVLPRVNEKLQKGFPLPTPARVQLYNVVLQPHQNFLLFGADVVYK
notes: purified in three column-chromatography steps

How the values were obtained:
P. aeruginosa = test: Bactericidal activity assay; type: cell-based, Pseudomonas aeruginosa type 1; settings: for Bactericidal Activity, % killing: 1.2 × 10^−7 M Peptide, 5 × 105 P. aeruginosa; for Bactericidal Activity, % killing at the effective dose: at the Ed for the same peptide; for Bactericidal Activity, Ed, Effective M dose: dose at which the % in brackets was found
Text: Bacteria: P. aeruginosa type 1 is a clinical isolate maintained in the laboratory. The isolate remains a smooth strain and was serotyped by the scheme of Homma. The Pseudomonas strain was maintained by monthly transfer on blood agar plates.
The peptides can be assayed for bactericidal activity against a variety of organisms such as Pseudomonas aeruginosa type 1, P. cepacia ATCC 25608, E. coli B, and Staphylococcus aureus 502A by standard methods.
Pseudomonas aeruginosa type 1 is a clinical isolate. The isolate remains a smooth strain and was serotyped by the scheme of Homma (Jpn. J. Exp. Med. 46:329, 1976). A rough strain, E. coli B and S. aureus 502A were obtained from Paul Quie, University of Minnesota (Minneapolis, Minn.). The characteristics of the S. aureus strain have been described by Shinefield et al. (Amer. J. Dis. Chil. 105:646, 1963). Pseudomonas cepacia ATCC 25608 can be purchased from the ATCC. S. aureus and E. coli were maintained on nutrient agar plates and the Pseudomonas strains were maintained on blood agar plates.
Pyrogen-free solutions were used throughout the assay and all methods that follow. Log phase bacteria were prepared from a culture in brain heart infusion broth (Hovde et al. Infect. Immun. 54:142–148, 1986) and bacteria were washed and resuspended in saline with adjustment to an optical density at 650 nm to provide a yield of about 3×10^8 CFU/ml. Bacteria were diluted 1:10 in 0.08M citrate phosphate buffer, pH 5.6 or pH 7.0, for use in the assay. S. aureus rapidly lost viability in the pH 5.6 buffer and was studied only at pH 7.0. Bactericidal activity was determined by dose response over peptide concentrations ranging from about […] to about 4.1×10^−9M. Bactericidal activity was determined by dose response, preferably determining LD50 by linear regression.

[1] = tested on: endotoxin from E. coli 055:B5; test: Limulus amoebocyte lysate assay (E-TOXATE), endotoxin neutralization; type: biochemical; settings: for Endotoxin Neutralization, % neutralization: 5.0 × 10^−6 M Peptide; for Endotoxin Neutralization, % neutralization / Endotoxin Neutralizing Activity, % neutralization: 0.02 U (0.2 pg) endotoxin from E. coli 055:B5; for Endotoxin Neutralizing Activity, % neutralization: 5.0 × 10^−5 M peptide
Protocol: The peptides were tested for their ability to neutralize endotoxin. Quantitative endotoxin activities for these peptides were measured by Limulus amoebocyte lysate assay.
Limulus amoebocyte lysate assay: The ability of synthetic peptides to neutralize endotoxin was detected with the E-TOXATE kit manufactured by Sigma Chemicals (St. Louis, Mo.). […] Peptide or B/PI was incubated with LPS at room temperature for 5 min in 100 ul of a 1:2 dilution of pyrogen-free saline (pH 6.4). The reaction was started by addition of 100 ul of amoebocyte lysate and the final volume was 200 ul. Assuming a 10,000 molecular weight for LPS, the approximate molar ration of B/PI:LPS at neutralization was 3000 to 1.
The peptides were tested according to the method provided above. […] BG38L was used as a positive control in these experiments.

[2] = Table 4, dose at which the % in brackets was found

Molecule	bactericidal activity (in words) (P. aeruginosa)	Bactericidal Activity, % killing (P. aeruginosa)	Endotoxin Neutralization, % neutralization ([1]; Table 4)	Endotoxin Neutralizing Activity, % neutralization ([1]; Table 3)	Bactericidal Activity, % killing at the effective dose (P. aeruginosa)	Bactericidal Activity, Ed, Effective M dose (P. aeruginosa) [nM]	Endotoxin Neutralization, % at the effective dose ([1]; Table 4, at the Ed) [%]	Endotoxin Neutralization, Ed, Effective M dose [1, 2] [µM]	Endotoxin Neutralization, % at the effective dose ([1]; Table 3, at the ED printed in the same cell) [%]	Endotoxin neutralization, ED, Effective M dose ([1]; Table 3, dose at which the % in brackets was found) [µM]	approximate molar ratio B/PI:LPS at neutralization ([1]; assuming a 10,000 molecular weight for LPS)
HIKELQVKMKAQKRFLKWSIIVKLNDGRELSLD [βpep-7]	greatest bactericidal activity	39.1, n = 2%	77.7, n = 2%	–	–	–	–	–	–	–	–
HIKELQVRWRAQKRFLRMSIIVKLNDGRELSLD [βpep-6]	–	8.2, n = 2%	79.3, n = 3%	–	–	–	–	–	–	–	–
SIQDLNVSMKLFRKQAKWKINVKLNDGRELSLD [βpep-4]	greatest bactericidal activity	37.6, n = 3%	14.7, n = 3%	–	–	–	–	–	–	–	–
SIQDLNVSMKLFRKQAKWKIIVKLNDGRELSLD [βpep-1]	greatest bactericidal activity	32.0, n = 3%	42.8, n = 3%	42.8, n = 3%	–	–	–	–	–	–	–
SIQDLNVSMKLFRKQAKWKILVKLNDGRELSLD [βpep-17]	–	0%	100%	–	40.1%	960	28.9	1.2	–	–	–
ANIKLSVEFKLFKRHLKWKIIFKLNDGREFSLD [βpep-13]	–	0%	100%	–	(19.8), n = 3%	960	22.5	1.2	–	–	–
ANIKLSVEMKFFKRHLKWKIIVKLNDGRELSLD [βpep-12]	–	0%	100%	–	(49.1), n = 5%	960	29.5	1.2	–	–	–
SIQDLNLSMKLFRKQAKWKIIVKLNDGRELSLD [βpep-22]	greatest bactericidal activity	35.5, n = 3%	100%	–	–	–	21.3	1.2	–	–	–
KFIVTLRVIKAGPHSPTAQIIVELKNGRKLSLD [βpep-5]	–	7.4, n = 7%	70.3, n = 3%	70.3, n = 3%	–	–	–	–	–	–	–
ANIKLSVKWKAQKRFLKMSINVDLSDGRELSLD [βpep-2]	–	18.8, n = 6%	55.3, n = 5%	–	–	–	–	–	–	–	–
ANIKLSVKWKAQKRFLKMSIIVKLNDGRELSLD [βpep-9]	–	0%	100%	–	(47.4), n = 11%	960	32.3	1.2	–	–	–
SIQDLKVSMKLFRKQAKWKIIVKLNDGRELSLD [βpep-18]	–	18.8, n = 1%	100%	–	–	–	30.2	1.2	–	–	–
SIQDLNVSMKLFRKQAKWKIILKLNDGRELSLD [βpep-15]	–	0%	48.1 n = 1%	–	23.9%	960	–	–	–	–	–
SIQKLNVSMKLFRKQAKWKIIVKLNDGRELSLD [βpep-19]	greatest bactericidal activity	62.5, n = 2%	0%	–	–	–	12.4	16	–	–	–
SIQDLNVSLKLFRKQAKWKIIVKLNDGRELSLD [βpep-21]	–	13.0, n = 1%	100%	–	–	–	40.3	1.2	–	–	–
ANIKLSVEMKLFCY^DWKVCKHVKLNDGRELSLD [βpep-11]	–	0%	100%	100%	(48.0), n = 4%	960	29.5	1.2	29.5	1.2	–
SIQDLNVSMXLFRKQAKWKIIVKLNDGRELSLD [βpep-20]	–	0%	100%	–	0.0%	480	17.1	1.2	–	–	–
ANIKLSVEMKLFCRHLKCKIIVKLNDGRELSLD [βpep-10]	–	0%	100%	–	(20.9), n = 7%	960	25.2	1.2	–	–	–
BG38: BG38L corresponds to amino acids 86–108 of B/PI; positive control (KISGKWKAQKRFLKMSGNFDLSI; UniProt P17213 117-139, looked up, fragment) [reference compound]	–	–	–	34.4, n = 5%	–	–	–	–	–	–	–
B1	–	–	–	–	–	–	–	–	–	–	3000 to 1
